Measurements published in PubChem BioAssay AID493119 (Broad Institute, 2011).
Where “and” joins values, the source holds several entries; their conditions need not be identical. Identical values can stand only once.

Tested on: V. harveyi MM32 (LuxS-), AI-2-induced luminescence, 5 h
Test: inhibitors of AI-2-induced luminescence in V. harveyi MM32, dose response, mechanism study for V. harveyi quorum sensing inhibitors, strain MM32 LuxS-null, dry powder, set 2 (AID 493119)

SMILES	AC50
Cc1cccc(NC(=O)c2ccc(Oc3ccccc3)cc2)n1	6550 nM
Cn1cnc(S(=O)(=O)Nc2ccc(OC(F)(F)F)cc2)c1	1880 nM and 2280 nM
C=Cn1c(C(=O)O)ccc1-c1ccc(CC)cc1	1720 nM and 1570 nM
O=C1C=C/C(=C/Br)O1	3970 nM
Cc1cccc(NS(=O)(=O)c2ccc(Oc3ccccc3)cc2)n1	1290 nM and 1610 nM
COc1cc(NC(=O)CN2C(=O)NC(c3ccccc3)(c3ccccc3)C2=O)cc(OC)c1	1170 nM and 1130 nM
CCc1ccc(S(=O)(=O)Nc2ccc(Br)cn2)cc1	2000 nM
